Measurements published in US20090176817A1, “Method of Treatment of Diarrhea-Predominant Irritable Bowel Syndrome in a Subject” (priority 2005, published 2009).
Where two headings read alike, the source gives them in different places.

Key:
[1] = system: diarrhea-predominant IBS subjects; assay: Study S241.3.009: IBS-QOL; format: in vivo, human; set-up: IBS-QOL interference with activity, treatment difference / IBS-QOL food avoidance, treatment difference / IBS-QOL dysphoria, treatment difference / IBS-QOL body image, treatment difference / IBS-QOL health worry, treatment difference / IBS-QOL social reaction, treatment difference / IBS-QOL sexual, treatment difference / IBS-QOL relationships, treatment difference: scale not given here; details: for Percentage of Subjects Who Worsened from Baseline: IBS-QOL Overall Score: S241.3.009, 2 mg TID, observed value
Description: (§1) Studies S24 1.3.OO6, S24 1.3.0 1 1, and S24 1.3.009 used the following efficacy measurements: • The subjects answered the following three questions with “yes” or “no” using a phone diary at the end of each week: • a) During the last week, did you experience adequate relief of your IBS symptoms, such as abdominal pain, abdominal discomfort, abnormal bowel habits? • b) During the last week, did you experience adequate relief of your abdominal pain and/or discomfort? • c) During the last week, did you experience adequate relief of your abnormal bowel habits? • The subjects rated the following symptoms using the phone diary at the end of each day: • abdominal pain/discomfort (five-point scale); • stool consistency (seven-point Bristol Stool Scale); • stool frequency (number of bowel movements each day); • urgency (five-point scale); • straining (yes or no); • feeling of incomplete defecation (yes or no); • bloating or feeling of abdominal distension (five-point scale). • In Studies S241 A006 and S241.3.009, subjects completed the IBS-QOL Survey at Baseline (Day 1) and at the end of treatment. In Study S24 1.3.0 1 1, subjects completed the IBS-QOL Survey at Baseline (Day 1), at the end of the three-month treatment period, and at the end of rerandomized treatment.
(§2) Other secondary efficacy parameters for all three studies included: • Responder rate for the weekly diary questions on adequate relief at each month, where a responder for a month (monthly responder) was defined as a subject who answered the weekly question with “yes” at least twice for that month. The responder rate was the percentage of responders within a treatment group. The all-month responder rate for the weekly diary questions on adequate relief was also evaluated, where an all-month responder was defined as a subject who answered the weekly question with “yes” at least twice for each month. The all-month responder rate was the percentage of all-month responders within a treatment group; • Adequate relief rate for the weekly diary questions was calculated for each subject as the number of weekly assessments with adequate relief (“yes”) divided by the total number of weekly assessments; • Percentage of subjects with adequate relief for the weekly diary questions at each week; • Daily diary questions regarding abdominal pain/discomfort (five-point scale), stool consistency (seven-point scale), stool frequency (number of bowel movements each day), straining (yes or no), urgency (five-point scale), feeling of incomplete evacuation (yes or no), and bloating or feeling of abdominal distention (five-point scale); • QOL data assessed by the IBS-QOL questionnaire; and • Question to determine the interruption of activities.
The IBS-QOL is presented for the ITT population in FIG. 84 (change from Baseline). The IBS-QOL questionnaire was completed only in countries for which there was a validated translation available.

[2] = clinical; details: both, human, in vivo, po, 8 mg
Description: The effect of hepatic impairment on the pharmacokinetics of cilansetron was evaluated in a multiple-dose, parallel group study in 14 healthy and 14 moderately to severely hepatically impaired male and female subjects, aged 41-70 years. Impaired subjects (Child-Pugh score 7 to 11) were matched to healthy subjects by age (±2 years), sex, menstrual status, and smoking history status. All subjects received oral cilansetron 8 mg TID on Days 1 to 5, and a single dose on the morning of Day 6. […] Blood samples were also collected at predose on Day 1, and at predose, 1 hour and 1.5 hours postdose on Day 6, for measurement of cilansetron protein binding in serum.

[3] = system: diarrhea-predominant IBS subjects; format: in vivo, human; details: for Percentage of Subjects Who Worsened from Baseline: Daily Abdominal Pain / Percentage of Subjects Who Worsened from Baseline: Daily Urgency: S241.3.009, observed value
Description: The primary efficacy parameter was the overall response rate for IBS symptoms, based on the weekly question concerning adequate relief of IBS symptoms (abdominal pain/discomfort, abnormal bowel habits) over the 26 weeks period. A responder was a subject who responded “yes” at least 50% of the time during his/her treatment period, with minimum treatment duration of four weeks. The two main secondary efficacy parameters were overall responder rate based on the weekly question on adequate relief of abdominal pain/discomfort and abnormal bowel habits during the 26-week treatment period. The onset of action of cilansetron was also examined using daily diary data (stool frequency, and ratings of urgency and severity) during the initial 8 weeks of trial participation. An additional key secondary efficacy parameter was the number of months (one month equals four weeks) up to six months (24-weeks) that a subject was a responder for IBS symptoms, where a responder was defined as a subject who answered the weekly question with “yes” at least twice for that month. The responder rate for the weekly diary questions on adequate relief at each month and all months, the adequate relief rate, the number of subjects with adequate relief by week, daily diary questions, IBS-QOL scores, and the interruption of activities were also assessed. Safety was evaluated by physical examination, ECG, vital signs, laboratory evaluations, concomitant medications, and AEs.
as §1
Other secondary efficacy parameters for all three studies included: • Responder rate for the weekly diary questions on adequate relief at each month, where a responder for a month (monthly responder) was defined as a subject who answered the weekly question with “yes” at least twice for that month. The responder rate was the percentage of responders within a treatment group. The all-month responder rate for the weekly diary questions on adequate relief was also evaluated, where an all-month responder was defined as a subject who answered the weekly question with “yes” at least twice for each month. […]

[4] = system: diarrhea-predominant IBS subjects; assay: Study S241.3.006: interruption of activities assessment; format: in vivo, human; details: for Percentage of Subjects Who Worsened from Baseline: Interruption of Activities: S241.3.006, 2 mg TID, observed value
Description: as §1, §2

[5] = clinical; details: both, human, in vivo, 2 mg
Description: The effect of renal impairment on the pharmacokinetics of cilansetron was evaluated in a study excluding subjects with end-stage renal disease, and utilizing a single-center, open-label, multiple-dose, parallel group study in 13 male and 9 female subjects, aged 33-74 years. […] Healthy subjects were matched to renally-impaired subjects with respect to age, weight, gender, and smoking status. All subjects received oral cilansetron 2 mg TID on Days 1 to 5, and a single dose on the morning of Day 6. Blood samples for measurement of plasma pharmacokinetics of cilansetron and its 4-hydroxy metabolites were collected up to 24 hours following dosing on Day 6, and log-transformed pharmacokinetic parameters for these analytes were statistically compared between study groups. Serum concentrations of unbound cilansetron and its 4-hydroxy metabolites were also measured prior to dosing and at 1 and 1.5 hours postdose on Day 6.

SMILES: Cc1nccn1C[C@H]1CCc2c(c3cccc4c3n2CCC4)C1=O [Cilansetron, (R)-(−)-4,5,6,8,9,10-hexahydro-10-[(2-methyl-1H-imidazol-1-yl)methyl]-11H-pyrido-[3,2,1-jk]-carbazol-11-one]
- Subjects worsened from Baseline, IBS-QOL Overall Score ([1]; Month 6): 5%
- Percentage of Subjects Who Worsened from Baseline: IBS-QOL Overall Score ([1]; Endpoint (last post-Baseline overall score)): 5%
- Percentage of Subjects Who Worsened from Baseline: IBS-QOL Overall Score ([1]; Month 6): 5%
- IBS-QOL body image, treatment difference ([1]; vs placebo): 5.04
- IBS-QOL dysphoria, treatment difference ([1]; vs placebo): 8.78
- IBS-QOL food avoidance, treatment difference ([1]; vs placebo): 10.09
- IBS-QOL health worry, treatment difference ([1]; vs placebo): 5.41
- IBS-QOL interference with activity, treatment difference ([1]; vs placebo): 10.85
- IBS-QOL overall score, treatment difference in mean change from Baseline at Endpoint ([1]; vs placebo): 7.90
- IBS-QOL relationships, treatment difference ([1]; vs placebo): 5.66
- IBS-QOL sexual, treatment difference ([1]; vs placebo): 2.93
- IBS-QOL social reaction, treatment difference ([1]; vs placebo): 8.70
- AUC ([2]; AUC(0-τ), Geom. LS Mean): 334 ng·h/mL
- Cmax [2]: 94.4 ng/mL
- Cmax ([2]; Geom. LS Mean): 83.9 ng/mL
- Tmax ([2]; Tmax): 0.75 h
- half-life ([2]; T½): 8.16 h
- Vd/F ([2]; Vz/F): 388 L
- Mean number of stools per day at end of treatment ([3]; 2 mg TID): 1.96 stools per day
- Stools per day ([3]; Day 2 of treatment): 2.97 stools per days
- Median rate of pain-free days ([3]; Month 1 to Month 3): 0.13
- Median rate of urgency-free days ([3]; Month 1 to Month 3): 0.05
- Median rate of pain-free days ([3]; Month 4 to Month 6): 0.31
- Median rate of urgency-free days ([3]; Month 4 to Month 6): 0.10
- Percentage of Subjects Who Worsened from Baseline: Daily Abdominal Pain ([3]; Weeks 1-2, 2 mg TID): 13%
- Percentage of Subjects Who Worsened from Baseline: Daily Urgency ([3]; Weeks 1-2, 2 mg TID): 7%
- Percentage of Subjects Who Worsened from Baseline: Daily Abdominal Pain ([3]; Weeks 3-4, 2 mg TID): 8%
- Percentage of Subjects Who Worsened from Baseline: Daily Urgency ([3]; Weeks 3-4, 2 mg TID): 5%
- Percentage of Subjects Who Worsened from Baseline: Daily Abdominal Pain ([3]; Weeks 5-6, 2 mg TID): 8%
- Percentage of Subjects Who Worsened from Baseline: Daily Urgency ([3]; Weeks 5-6, 2 mg TID): 5%
- Percentage of Subjects Who Worsened from Baseline: Daily Abdominal Pain ([3]; Weeks 7-8, 2 mg TID): 7%
- Percentage of Subjects Who Worsened from Baseline: Daily Urgency ([3]; Weeks 7-8, 2 mg TID): 4%
- Percentage of Subjects Who Worsened from Baseline: Daily Abdominal Pain ([3]; Weeks 9-10, 2 mg TID): 4%
- Percentage of Subjects Who Worsened from Baseline: Daily Urgency ([3]; Weeks 9-10, 2 mg TID): 6%
- Percentage of Subjects Who Worsened from Baseline: Daily Abdominal Pain ([3]; Weeks 11-12, 2 mg TID): 7%
- Percentage of Subjects Who Worsened from Baseline: Daily Urgency ([3]; Weeks 11-12, 2 mg TID): 4%
- Percentage of Subjects Who Worsened from Baseline: Daily Abdominal Pain ([3]; Weeks 13-26, 2 mg TID): 6-8%
- Percentage of Subjects Who Worsened from Baseline: Daily Urgency ([3]; Weeks 13-26, 2 mg TID): 5-8%
- Subjects worsened from Baseline, daily abdominal pain ([3]; Weeks 1-2): 13%
- Subjects worsened from Baseline, daily urgency ([3]; Weeks 1-2): 7%
- Bloating or abdominal distention score, change from Baseline at end of treatment ([3]; in vivo): −0.75
- Daily abdominal pain/discomfort score, change from Baseline at end of treatment ([3]; in vivo): −0.92
- Daily stool consistency score, change from Baseline at end of treatment ([3]; in vivo): −1.40
- Daily urgency score, change from Baseline at end of treatment ([3]; in vivo): −0.80
- Feeling of incomplete evacuation, change from Baseline at end of treatment ([3]; in vivo): −0.25
- Mean stool consistency score at end of treatment ([3]; in vivo): 4.27
- Mean straining, change from Baseline at end of treatment ([3]; in vivo): 0.06
- Pain-free days at end of treatment ([3]; in vivo): 0.29
- Stools per day, change from Baseline at end of treatment ([3]; in vivo): −1.60
- Urgency-free days at end of treatment ([3]; in vivo): 0.08
- Median rate of pain-free days ([3]; six-month period): 0.19
- Median rate of urgency-free days ([3]; six-month period): 0.07
- Subjects “not at all or rarely” bothered by IBS symptoms ([4]; Endpoint): 42%
- Subjects worsened from Baseline, interruption of activities ([4]; Month 1): 8%
- Percentage of Subjects Who Worsened from Baseline: Interruption of Activities ([4]; Month 1): 8%
- Percentage of Subjects Who Worsened from Baseline: Interruption of Activities ([4]; Month 2): 5%
- Percentage of Subjects Who Worsened from Baseline: Interruption of Activities ([4]; Month 3): 4%
- Tmax ([5]; Tmax): 1 h
- half-life ([5]; T½): 2.85 h
